# Assay results taken from ChEMBL document CHEMBL4371002 (J Med Chem, 2018).
# Peptide text beside a SMILES is read from it. * marks the point of attachment. X1 = CC(C)[C@H](/C=C(\Cl)[C@H](C)N)C(=O)*; X4 = C[C@H](/C=C(\Cl)[C@H](C)N)C(=O)*; X2 = C[C@H](/C=C(\F)[C@H](C)N)C(=O)*
# Target: Bacterial 70S ribosome
# Assay: not given
# Type: subcellular, Bacteria
# Details: not given
row,Structure (SMILES),IC50 [nM]
1,CC1=C\[C@@H](O)C[C@H](O)Cc2nc(co2)C(=O)N2CCC[C@@H]2C(=O)O[C@H](C(C)C)[C@H](C)/C=C/C(=O)NC\C=C\1,6000
2,CC1=C\[C@@H](O)C[C@@H](O)Cc2nc(co2)C(=O)N2CCC[C@@H]2C(=O)O[C@H](C(C)C)[C@H](C)/C=C/C(=O)NC\C=C\1,50

# Test system: Staphylococcus hominis
# Assay: microbe, parasite or virus in culture
# Type: functional
# Details: IP8203
row,Structure (SMILES),MIC [µg/mL]
1,CC1=C\[C@@H](O)C[C@H](O)Cc2nc(co2)C(=O)N2CCC[C@@H]2C(=O)O[C@H](C(C)C)[C@H](C)/C=C/C(=O)NC\C=C\1,32
2,CC1=C\[C@@H](O)C[C@@H](O)Cc2nc(co2)C(=O)N2CCC[C@@H]2C(=O)O[C@H](C(C)C)[C@H](C)/C=C/C(=O)NC\C=C\1,1

# Target: T1, 5-hydroxytryptamine receptor 1A (Homo sapiens, UniProt P08908)
# T1 sequence (P08908 whole entry): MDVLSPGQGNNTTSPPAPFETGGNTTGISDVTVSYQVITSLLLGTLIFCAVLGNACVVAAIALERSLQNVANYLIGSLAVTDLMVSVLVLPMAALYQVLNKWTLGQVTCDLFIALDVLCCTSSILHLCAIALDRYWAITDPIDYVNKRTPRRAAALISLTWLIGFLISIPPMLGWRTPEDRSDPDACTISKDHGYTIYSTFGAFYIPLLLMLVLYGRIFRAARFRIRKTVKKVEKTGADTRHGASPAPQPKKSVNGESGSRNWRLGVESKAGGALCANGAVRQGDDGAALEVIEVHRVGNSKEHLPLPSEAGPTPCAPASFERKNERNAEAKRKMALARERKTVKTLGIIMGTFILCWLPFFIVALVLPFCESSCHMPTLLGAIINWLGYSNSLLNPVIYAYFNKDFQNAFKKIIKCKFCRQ
# Assay: not given
# Type: functional, cell-based, CHO
# Details: not given
row,Structure (SMILES),IC50 [nM]
1,N#Cc1ccc2[nH]cc(CCCCN3CCN(c4ccc5c(c4)OCCO5)CC3)c2c1,1
2,Fc1ccc2[nH]cc(CCCCN3CCN(c4ccc5c(c4)OCO5)CC3)c2c1,4
3,c1ccc2c(CCCCN3CCN(c4ccc5c(c4)OCCO5)CC3)c[nH]c2c1,8
4,N#Cc1ccc2[nH]cc(CCCCN3CCN(c4ccc5c(c4)OCO5)CC3)c2c1,0.7
5,Clc1ccc2[nH]cc(CCCCN3CCN(c4ccc5c(c4)OCCO5)CC3)c2c1,40
6,Fc1ccc2[nH]cc(CCCCN3CCN(c4ccc5c(c4)OCCO5)CC3)c2c1,5
7,NC(=O)c1cc2cc(N3CCN(CCCCc4c[nH]c5ccc(F)cc45)CC3)ccc2o1,3

# Target: T2, Parathyroid hormone/parathyroid hormone-related peptide receptor (Homo sapiens, UniProt Q03431)
# T2 sequence (Q03431 whole entry): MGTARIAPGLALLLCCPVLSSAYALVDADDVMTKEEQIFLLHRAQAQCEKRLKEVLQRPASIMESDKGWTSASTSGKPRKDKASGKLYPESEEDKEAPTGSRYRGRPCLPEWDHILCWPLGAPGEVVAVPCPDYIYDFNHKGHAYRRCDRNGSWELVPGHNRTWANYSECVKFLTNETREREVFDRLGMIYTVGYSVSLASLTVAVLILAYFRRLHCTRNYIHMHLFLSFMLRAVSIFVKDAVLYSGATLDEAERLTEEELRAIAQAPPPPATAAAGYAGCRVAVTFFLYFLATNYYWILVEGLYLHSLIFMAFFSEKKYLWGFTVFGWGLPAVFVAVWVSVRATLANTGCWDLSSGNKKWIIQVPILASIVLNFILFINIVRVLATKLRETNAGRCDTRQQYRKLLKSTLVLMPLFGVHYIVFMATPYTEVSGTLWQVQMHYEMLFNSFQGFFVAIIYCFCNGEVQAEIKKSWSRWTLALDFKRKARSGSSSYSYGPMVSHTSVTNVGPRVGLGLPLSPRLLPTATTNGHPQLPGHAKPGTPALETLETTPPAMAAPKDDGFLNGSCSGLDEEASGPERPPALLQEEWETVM
# Assay: not given
# Details: not given
row,Structure (SMILES),EC50 [nM]
1,CC[C@H](C)[C@H](NC(=O)[C@H](CCC(=O)O)NC(=O)[C@H](CO)NC(=O)[C@H](C)/C=C(\F)[C@H](C)N)C(=O)N[C@@H](CCC(N)=O)C(=O)N[C@@H](CC(C)C)C(=O)N[C@@H](CCSC)C(=O)N[C@@H](Cc1c[nH]cn1)C(=O)N[C@@H](CC(N)=O)C(=O)N[C@@H](CC(C)C)C(=O)NCC(=O)N[C@@H](CCCCN)C(=O)N[C@@H](Cc1c[nH]cn1)C(=O)N[C@@H](CC(C)C)C(=O)N[C@@H](CC(N)=O)C(=O)N[C@@H](CO)C(=O)N[C@@H](CCSC)C(=O)N[C@@H](CCC(=O)O)C(=O)N[C@@H](CCCN=C(N)N)C(=O)N[C@H](C(=O)N[C@@H](CCC(=O)O)C(=O)N[C@@H](Cc1c[nH]c2ccccc12)C(=O)N[C@@H](CC(C)C)C(=O)N[C@@H](CCCN=C(N)N)C(=O)N[C@@H](CCCCN)C(=O)N[C@@H](CCCCN)C(=O)N[C@@H](CC(C)C)C(=O)N[C@@H](CCC(N)=O)C(=O)N[C@@H](CC(=O)O)C(=O)N[C@H](C(=O)N[C@@H](Cc1c[nH]cn1)C(=O)N[C@@H](CC(N)=O)C(=O)N[C@@H](Cc1ccccc1)C(=O)N[C@H](C(=O)N[C@@H](C)C(N)=O)C(C)C)C(C)C)C(C)C (X2-SEIQLMHNLGKHLNSMERVEWLRKKLQDVHNFVA-NH2),9.1
2,CC[C@H](C)[C@H](NC(=O)[C@H](CCC(=O)O)NC(=O)[C@H](CO)NC(=O)[C@@H](/C=C(\Cl)[C@H](C)N)C(C)C)C(=O)N[C@@H](CCC(N)=O)C(=O)N[C@@H](CC(C)C)C(=O)N[C@@H](CCSC)C(=O)N[C@@H](Cc1c[nH]cn1)C(=O)N[C@@H](CC(N)=O)C(=O)N[C@@H](CC(C)C)C(=O)NCC(=O)N[C@@H](CCCCN)C(=O)N[C@@H](Cc1c[nH]cn1)C(=O)N[C@@H](CC(C)C)C(=O)N[C@@H](CC(N)=O)C(=O)N[C@@H](CO)C(=O)N[C@@H](CCSC)C(=O)N[C@@H](CCC(=O)O)C(=O)N[C@@H](CCCN=C(N)N)C(=O)N[C@H](C(=O)N[C@@H](CCC(=O)O)C(=O)N[C@@H](Cc1c[nH]c2ccccc12)C(=O)N[C@@H](CC(C)C)C(=O)N[C@@H](CCCN=C(N)N)C(=O)N[C@@H](CCCCN)C(=O)N[C@@H](CCCCN)C(=O)N[C@@H](CC(C)C)C(=O)N[C@@H](CCC(N)=O)C(=O)N[C@@H](CC(=O)O)C(=O)N[C@H](C(=O)N[C@@H](Cc1c[nH]cn1)C(=O)N[C@@H](CC(N)=O)C(=O)N[C@@H](Cc1ccccc1)C(=O)N[C@H](C(=O)N[C@@H](C)C(N)=O)C(C)C)C(C)C)C(C)C (X1-SEIQLMHNLGKHLNSMERVEWLRKKLQDVHNFVA-NH2),7.9
3,CC[C@H](C)[C@H](NC(=O)[C@H](CCC(=O)O)NC(=O)[C@H](CO)NC(=O)[C@H](C)/C=C(\Cl)[C@H](C)N)C(=O)N[C@@H](CCC(N)=O)C(=O)N[C@@H](CC(C)C)C(=O)N[C@@H](CCSC)C(=O)N[C@@H](Cc1c[nH]cn1)C(=O)N[C@@H](CC(N)=O)C(=O)N[C@@H](CC(C)C)C(=O)NCC(=O)N[C@@H](CCCCN)C(=O)N[C@@H](Cc1c[nH]cn1)C(=O)N[C@@H](CC(C)C)C(=O)N[C@@H](CC(N)=O)C(=O)N[C@@H](CO)C(=O)N[C@@H](CCSC)C(=O)N[C@@H](CCC(=O)O)C(=O)N[C@@H](CCCN=C(N)N)C(=O)N[C@H](C(=O)N[C@@H](CCC(=O)O)C(=O)N[C@@H](Cc1c[nH]c2ccccc12)C(=O)N[C@@H](CC(C)C)C(=O)N[C@@H](CCCN=C(N)N)C(=O)N[C@@H](CCCCN)C(=O)N[C@@H](CCCCN)C(=O)N[C@@H](CC(C)C)C(=O)N[C@@H](CCC(N)=O)C(=O)N[C@@H](CC(=O)O)C(=O)N[C@H](C(=O)N[C@@H](Cc1c[nH]cn1)C(=O)N[C@@H](CC(N)=O)C(=O)N[C@@H](Cc1ccccc1)C(=O)N[C@H](C(=O)N[C@@H](C)C(N)=O)C(C)C)C(C)C)C(C)C (X4-SEIQLMHNLGKHLNSMERVEWLRKKLQDVHNFVA-NH2),5.5

# Target: D(2) dopamine receptor (Homo sapiens) (UniProt P14416)
# Sequence (P14416 whole entry): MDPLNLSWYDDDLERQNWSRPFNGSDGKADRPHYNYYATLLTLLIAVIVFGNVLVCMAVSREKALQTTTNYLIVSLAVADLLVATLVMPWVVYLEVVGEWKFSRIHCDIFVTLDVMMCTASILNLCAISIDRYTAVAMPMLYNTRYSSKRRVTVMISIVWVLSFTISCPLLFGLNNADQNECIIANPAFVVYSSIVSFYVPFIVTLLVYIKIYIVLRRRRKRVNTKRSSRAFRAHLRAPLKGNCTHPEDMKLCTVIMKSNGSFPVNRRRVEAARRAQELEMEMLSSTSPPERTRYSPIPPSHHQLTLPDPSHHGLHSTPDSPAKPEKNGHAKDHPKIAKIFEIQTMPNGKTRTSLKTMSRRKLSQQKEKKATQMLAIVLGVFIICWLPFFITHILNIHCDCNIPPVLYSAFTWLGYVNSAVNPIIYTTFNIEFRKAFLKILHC
# Assay: not given
# Details: not given
row,Structure (SMILES),KiH [nM]
1,O=C1Cc2c(ccc3c2OC(CNCc2ccccc2)CC3)N1 (stereo unspecified),0.37
2,Cc1nc2c(OCCNCc3ccccc3)cccc2[nH]1,4.4
3,c1ccc(CNCCOc2cccc3[nH]cnc23)cc1,9.8
4,FC(F)(F)c1nc2c(OCCNCc3ccccc3)cccc2[nH]1,0.18
5,Oc1nc2c(OCCNCc3ccccc3)cccc2[nH]1,0.18
6,Oc1nc2c3c(ccc2[nH]1)CCC(CNCc1ccccc1)O3 (stereo unspecified),0.14
7,FC(F)(F)c1nc2c3c(ccc2[nH]1)CCC(CNCc1ccccc1)O3 (stereo unspecified),5.75

# Test system: not listed separately
# Assay: physchem
# Details: not given
row,Structure (SMILES),pKa
1,NCc1ccc(F)c(O)c1F,9.81
2,NCc1cc(F)c(O)c(F)c1,7.12

# Target: T2, Parathyroid hormone/parathyroid hormone-related peptide receptor
# Assay: biochemical
# Details: not given
row,Structure (SMILES),Kd [nM]
1,CC[C@H](C)[C@H](NC(=O)[C@H](CCC(=O)O)NC(=O)[C@H](CO)NC(=O)[C@H](C)/C=C(\F)[C@H](C)N)C(=O)N[C@@H](CCC(N)=O)C(=O)N[C@@H](CC(C)C)C(=O)N[C@@H](CCSC)C(=O)N[C@@H](Cc1c[nH]cn1)C(=O)N[C@@H](CC(N)=O)C(=O)N[C@@H](CC(C)C)C(=O)NCC(=O)N[C@@H](CCCCN)C(=O)N[C@@H](Cc1c[nH]cn1)C(=O)N[C@@H](CC(C)C)C(=O)N[C@@H](CC(N)=O)C(=O)N[C@@H](CO)C(=O)N[C@@H](CCSC)C(=O)N[C@@H](CCC(=O)O)C(=O)N[C@@H](CCCN=C(N)N)C(=O)N[C@H](C(=O)N[C@@H](CCC(=O)O)C(=O)N[C@@H](Cc1c[nH]c2ccccc12)C(=O)N[C@@H](CC(C)C)C(=O)N[C@@H](CCCN=C(N)N)C(=O)N[C@@H](CCCCN)C(=O)N[C@@H](CCCCN)C(=O)N[C@@H](CC(C)C)C(=O)N[C@@H](CCC(N)=O)C(=O)N[C@@H](CC(=O)O)C(=O)N[C@H](C(=O)N[C@@H](Cc1c[nH]cn1)C(=O)N[C@@H](CC(N)=O)C(=O)N[C@@H](Cc1ccccc1)C(=O)N[C@H](C(=O)N[C@@H](C)C(N)=O)C(C)C)C(C)C)C(C)C (X2-SEIQLMHNLGKHLNSMERVEWLRKKLQDVHNFVA-NH2),6.31
2,CC[C@H](C)[C@H](NC(=O)[C@H](CCC(=O)O)NC(=O)[C@H](CO)NC(=O)[C@@H](/C=C(\Cl)[C@H](C)N)C(C)C)C(=O)N[C@@H](CCC(N)=O)C(=O)N[C@@H](CC(C)C)C(=O)N[C@@H](CCSC)C(=O)N[C@@H](Cc1c[nH]cn1)C(=O)N[C@@H](CC(N)=O)C(=O)N[C@@H](CC(C)C)C(=O)NCC(=O)N[C@@H](CCCCN)C(=O)N[C@@H](Cc1c[nH]cn1)C(=O)N[C@@H](CC(C)C)C(=O)N[C@@H](CC(N)=O)C(=O)N[C@@H](CO)C(=O)N[C@@H](CCSC)C(=O)N[C@@H](CCC(=O)O)C(=O)N[C@@H](CCCN=C(N)N)C(=O)N[C@H](C(=O)N[C@@H](CCC(=O)O)C(=O)N[C@@H](Cc1c[nH]c2ccccc12)C(=O)N[C@@H](CC(C)C)C(=O)N[C@@H](CCCN=C(N)N)C(=O)N[C@@H](CCCCN)C(=O)N[C@@H](CCCCN)C(=O)N[C@@H](CC(C)C)C(=O)N[C@@H](CCC(N)=O)C(=O)N[C@@H](CC(=O)O)C(=O)N[C@H](C(=O)N[C@@H](Cc1c[nH]cn1)C(=O)N[C@@H](CC(N)=O)C(=O)N[C@@H](Cc1ccccc1)C(=O)N[C@H](C(=O)N[C@@H](C)C(N)=O)C(C)C)C(C)C)C(C)C (X1-SEIQLMHNLGKHLNSMERVEWLRKKLQDVHNFVA-NH2),1.26
3,CC[C@H](C)[C@H](NC(=O)[C@H](CCC(=O)O)NC(=O)[C@H](CO)NC(=O)[C@H](C)/C=C(\Cl)[C@H](C)N)C(=O)N[C@@H](CCC(N)=O)C(=O)N[C@@H](CC(C)C)C(=O)N[C@@H](CCSC)C(=O)N[C@@H](Cc1c[nH]cn1)C(=O)N[C@@H](CC(N)=O)C(=O)N[C@@H](CC(C)C)C(=O)NCC(=O)N[C@@H](CCCCN)C(=O)N[C@@H](Cc1c[nH]cn1)C(=O)N[C@@H](CC(C)C)C(=O)N[C@@H](CC(N)=O)C(=O)N[C@@H](CO)C(=O)N[C@@H](CCSC)C(=O)N[C@@H](CCC(=O)O)C(=O)N[C@@H](CCCN=C(N)N)C(=O)N[C@H](C(=O)N[C@@H](CCC(=O)O)C(=O)N[C@@H](Cc1c[nH]c2ccccc12)C(=O)N[C@@H](CC(C)C)C(=O)N[C@@H](CCCN=C(N)N)C(=O)N[C@@H](CCCCN)C(=O)N[C@@H](CCCCN)C(=O)N[C@@H](CC(C)C)C(=O)N[C@@H](CCC(N)=O)C(=O)N[C@@H](CC(=O)O)C(=O)N[C@H](C(=O)N[C@@H](Cc1c[nH]cn1)C(=O)N[C@@H](CC(N)=O)C(=O)N[C@@H](Cc1ccccc1)C(=O)N[C@H](C(=O)N[C@@H](C)C(N)=O)C(C)C)C(C)C)C(C)C (X4-SEIQLMHNLGKHLNSMERVEWLRKKLQDVHNFVA-NH2),1.26
